Measured values reported in ChEMBL document CHEMBL4808181, “Hydrophobic Pocket Occupation Design of Difluoro-Biphenyl-Diarylpyrimidines as Non-Nucleoside HIV-1 Reverse Transcriptase Inhibitors: from N-Alkylation to Methyl Hopping on the Pyrimidine Ring” (J Med Chem, 2021).

Experiments:
[1] = Cytotoxicity against in human MT-4 cells after 5 days by MTT assay; type: cell-based, MT4; details: time 5 day
[2] = Inhibition of HIV-1 p66/p51 reverse transcriptase E138K mutant incubated for 40 mins by picogreen dye-based spectrofluorometric analysis; design: species or system Human immunodeficiency virus 1
[3] = Selectivity index, ratio of CC50 for cytotoxicity against human MT-4 cells to EC50 for inhibition of HIV-1 p66/51 reverse transcriptase K103N mutant; type: toxicity, cell-based; details: read-out: Ratio CC50/EC50
[4] = Selectivity index, ratio of CC50 for cytotoxicity against human MT-4 cells to EC50 for inhibition of HIV-1 p66/51 reverse transcriptase E138K mutant; type: toxicity, cell-based; details: read-out: Ratio CC50/EC50
[5] = Selectivity index, ratio of CC50 for cytotoxicity against human MT-4 cells to EC50 for inhibition of HIV-1 p66/51 reverse transcriptase Y188L mutant; type: toxicity, cell-based; details: read-out: Ratio CC50/EC50
[6] = Selectivity index, ratio of CC50 for human MT-4 cells to EC50 for HIV-1 infected in MT-4 cells; type: toxicity, cell-based; details: read-out: Ratio CC50/EC50
[7] = test system: Human immunodeficiency virus 1; assay: Antiviral activity against HIV-1 infected in human MT-4 cells assessed as reduction in virus-induced cytopathic effect incubated for 5 days by MTT assay; type: functional, organism-based; details: Human immunodeficiency virus 1, MT4, 120 h
[8] = Selectivity index, ratio of CC50 for cytotoxicity against human MT-4 cells to EC50 for inhibition of HIV-1 p66/51 reverse transcriptase L100I mutant; type: toxicity, cell-based; details: read-out: Ratio CC50/EC50
[9] = biological target: Human immunodeficiency virus type 1 reverse transcriptase (Human immunodeficiency virus 1, UniProt Q72547); assay: Inhibition of recombinant wild type p66/p51 HIV1 reverse transcriptase incubated for 40 mins by picogreen dye-based spectrofluorometric analysis
[10] = biological target: Human immunodeficiency virus type 1 reverse transcriptase (Human immunodeficiency virus 1, UniProt Q72547, K103N); assay: Inhibition of HIV-1 p66/p51 reverse transcriptase K103N mutant incubated for 40 mins by picogreen dye-based spectrofluorometric analysis
[11] = biological target: Human immunodeficiency virus type 1 reverse transcriptase (Human immunodeficiency virus 1, UniProt Q72547, L100I); assay: Inhibition of HIV-1 p66/p51 reverse transcriptase L100I mutant incubated for 40 mins by picogreen dye-based spectrofluorometric analysis
[12] = Inhibition of HIV-1 p66/p51 reverse transcriptase Y188L mutant incubated for 40 mins by picogreen dye-based spectrofluorometric analysis; design: species or system Human immunodeficiency virus 1
[13] = Selectivity index, ratio of CC50 for cytotoxicity against human MT-4 cells to EC50 for inhibition of HIV-1 p66/51 reverse transcriptase Y181C mutant; type: toxicity, cell-based; details: read-out: Ratio CC50/EC50
[14] = biological target: Human immunodeficiency virus type 1 reverse transcriptase (Human immunodeficiency virus 1, UniProt Q72547, Y181C); assay: Inhibition of HIV-1 p66/p51 reverse transcriptase Y181C mutant incubated for 40 mins by picogreen dye-based spectrofluorometric analysis

Row | Compound | CC50 at 120 h [1] | EC50 [2] | selectivity ratio [3] | selectivity ratio [4] | selectivity ratio [5] | selectivity ratio [6] | EC50 [7] | selectivity ratio [8] | IC50 [9] | EC50 [10] | EC50 [11] | EC50 [12] | selectivity ratio [13] | EC50 [14]
1 | Cc1ccnc2c1NC(=O)c1cccnc1N2C1CC1 [NEVIRAPINE] | > 15000 nM | 288 nM | – | – | – | – | – | – | – | – | – | – | – | –
2 | N#Cc1ccc(Nc2nccc(N(CCCO)c3c(F)cc(-c4ccc(C#N)cc4)cc3F)n2)cc1 | 68000 nM | 21.9 nM | 1270 | 3110 | 84 | 10300 | 7 nM | 1670 | 30 nM | 53.4 nM | 40.9 nM | 813 nM | 1980 | 34.4 nM
3 | CC(=O)N(c1ccnc(Nc2ccc(C#N)cc2)n1)c1c(F)cc(-c2ccc(C#N)cc2)cc1F | > 268000 nM | 9.23 nM | > 24500 | > 29100 | > 490 | > 34700 | 8 nM | > 4140 | 40 nM | 10.9 nM | 64.8 nM | 548 nM | > 9800 | 27.4 nM
4 | N#Cc1ccc(Nc2nccc(N(CC(O)CO)c3c(F)cc(-c4ccc(C#N)cc4)cc3F)n2)cc1 (racemic) | 19500 nM | – | – | – | – | 2440 | 8 nM | – | – | – | – | – | – | –
5 | N#Cc1ccc(Nc2nccc(N(CCCF)c3c(F)cc(-c4ccc(C#N)cc4)cc3F)n2)cc1 | 241000 nM | – | – | – | – | 8690 | 28 nM | – | – | – | – | – | – | –
6 | CC(C)CN(c1ccnc(Nc2ccc(C#N)cc2)n1)c1c(F)cc(-c2ccc(C#N)cc2)cc1F | 241000 nM | – | – | – | – | 3540 | 70 nM | – | – | – | – | – | – | –
7 | Cc1cc(C#N)cc(C)c1Oc1nc(Nc2ccc(C#N)cc2)nc(N)c1Br [ETRAVIRINE] | > 4600 nM | – | – | – | – | – | – | – | – | – | – | 29.3 nM | – | –
8 | N#Cc1ccc(Nc2nccc(N(c3c(F)cc(-c4ccc(C#N)cc4)cc3F)C3CCCC3)n2)cc1 | 232000 nM | – | – | – | – | 1930 | 120 nM | – | – | – | – | – | – | –
9 | N#Cc1ccc(Nc2nccc(C(C#N)c3ccc(-c4ccc(C#N)cc4)cc3F)n2)cc1 (stereo not given) | 36000 nM | – | – | – | – | 1360 | 27 nM | – | – | – | – | – | – | –
10 | N#Cc1ccc(Nc2nccc(N(CCO)c3c(F)cc(-c4ccc(C#N)cc4)cc3F)n2)cc1 | 5310 nM | 7.6 nM | 146 | 701 | 8 | 1060 | 5 nM | 293 | 15 nM | 36.3 nM | 18.2 nM | 662 nM | 244 | 21.8 nM
11 | CC(C)N(c1ccnc(Nc2ccc(C#N)cc2)n1)c1c(F)cc(-c2ccc(C#N)cc2)cc1F | 172000 nM | – | – | – | – | 6440 | 27 nM | – | – | – | – | – | – | –
12 | N#Cc1ccc(Nc2nccc(N(CC(F)F)c3c(F)cc(-c4ccc(C#N)cc4)cc3F)n2)cc1 | 252000 nM | – | – | – | – | 17700 | 14 nM | – | – | – | – | – | – | –
13 | N#Cc1ccc(Nc2nccc(/C(=N/O)c3ccc(-c4ccc(F)cc4)cc3F)n2)cc1 | > 292000 nM | – | – | – | – | > 24100 | 12 nM | – | – | – | – | – | – | –
14 | CCCCN(c1ccnc(Nc2ccc(C#N)cc2)n1)c1c(F)cc(-c2ccc(C#N)cc2)cc1F | 211000 nM | – | – | – | – | 5240 | 40 nM | – | – | – | – | – | – | –
15 | CCN(c1ccnc(Nc2ccc(C#N)cc2)n1)c1c(F)cc(-c2ccc(C#N)cc2)cc1F | 105000 nM | – | 3990 | 4130 | 138 | 11600 | 9.1 nM | 5190 | 30 nM | 26 nM | 20 nM | 767 nM | 2660 | 40 nM
16 | CCCN(c1ccnc(Nc2ccc(C#N)cc2)n1)c1c(F)cc(-c2ccc(C#N)cc2)cc1F | 212000 nM | 34.9 nM | 1960 | 6090 | 114 | 11300 | 19 nM | 2240 | 41 nM | 108 nM | 95 nM | 1860 nM | 3090 | 69 nM
